Experiments:
[1] = 2 drops per day of 0.2% BT, 1-7% absorption, 0.66 mg brimonidine per mg BT
Protocol: Theoretical maximum and minimum amounts of BT absorption were also calculated as a basis for comparison for in vitro release from the BTMPs. This range was calculated by assuming a 50 μl drop and 2 drops administered per day at a rate of either 1% (minimum) or 7% (maximum) absorption (Ghate and Edelhauser, 2008). As the in vitro release methods measure base brimonidine and not the tartrate salt, a necessary conversion factor of 0.66 mg brimonidine for every 1 mg BT was incorporated in these calculations (Acheampong et al., 2002).

[2] = in vivo; cited from earlier work
[3] = system: New Zealand White rabbits; assay: Post-mortem T1-weighted MRI 24 h after intravitreal injection of Gd-DOTA in thermoresponsive gel; format: in vivo, rabbit; settings: in hydrogel
Protocol: Scans were performed within one hour of sacrifice. Soluble Gd-DOTA without MP encapsulation was largely cleared from the injection site at 24 h, with only 56% and 59% signal intensity (relative to nearby muscle tissue) in the vitreous and anterior chamber, respectively. […] The spatiotemporal distribution of Gd-DOTA into the rest of the eye will also provide valuable data for future controlled release formulations of other ocular therapeutics, such as those targeting the posterior segment of the eye.

[4] = Loading and release of other drugs from microparticles embedded in the gel; format: physicochemical
Source text: The loading and release of other drugs (moxiflxacin and vancomycin) with the microparticles embedded within the gel has also been confirmed.

[5] = In vitro NGF release from PLGA microspheres; format: physicochemical; settings: FIG. 15
Protocol: 1. Prepare aqueous solution of NGF in DI water at 100 ug/ml concentration
2. Add 200 ul of this NGF solution to 4 ml dichloromethane/PLGA solution (using 200 mg of desired PLGA—for microspheres in FIG. 1 this was acid terminated 50:50 lactic:glycolic MW=7-17,000 Da viscosity=0.16-0.24 dl/g)
3. Sonicate for 10 s at 25% amplitude
4. Immediately add to 60 ml of 2% PVA solution and homogenize at 2300 rpm for 1 min
5. Add to 80 ml of 1% PVA solution and stir at 600 rpm for 3 h
6. Wash 4 times (each wash: centrifuge 5-10 min at 1000 rpm, decant, resuspend in DI water)
7. Freeze under liquid N2 and place on lyophilizer until all water is gone
1. Add microspheres (10 mg microspheres/100 ul gel) just prior to use and gently mix to suspend homogeneously.

Brc1c(NC2=NCCN2)ccc2nccnc12 [Brimonidine, brimonidine]
therapeutic levels (theoretical brimonidine absorbed) [1]: 0.53 to 3.7 µg/day

O=C([O-])CN(CCN(CC(=O)[O-])CC(=O)O)CCN(CC(=O)[O-])CC(=O)O.[Gd+3] [Gd-DTPA]
ocular half-life [2]: 28.08 min

O=C([O-])CN1CCN(CC(=O)[O-])CCN(CC(=O)O)CCN(CC(=O)[O-])CC1.[Gd+3] [Soluble Gd-DOTA, gadolinium-tetraazocyclododecanetetraacetic acid]
signal intensity relative to muscle, anterior chamber [3]: 59%
signal intensity relative to muscle, vitreous [3]: 56%

CN[C@H](CC(C)C)C(=O)N[C@H]1C(=O)N[C@@H](CC(N)=O)C(=O)N[C@H]2C(=O)N[C@H]3C(=O)N[C@H](C(=O)N[C@H](C(=O)O)c4cc(O)cc(O)c4-c4cc3ccc4O)[C@H](O)c3ccc(c(Cl)c3)Oc3cc2cc(c3O[C@@H]2O[C@H](CO)[C@@H](O)[C@H](O)[C@H]2O[C@H]2C[C@](C)(N)[C@H](O)[C@H](C)O2)Oc2ccc(cc2Cl)[C@H]1O [vancomycin]
loading and release with microparticles embedded within the gel [4]: confirmed

Brimonidine tartrate [BT]
ocular half-life [2]: 28.2 min

NGF: nerve growth factor, released from NGF-loaded PLGA microspheres
duration of NGF release [5]: approximately one week

— patent publication US20220202705A1, “THERMORESPONSIVE HYDROGEL CONTAINING POLYMER MICROPARTICLES FOR NONINVASIVE OCULAR BIOLOGIC DELIVERY” (University of Pittsburgh - Of the Commonwealth System of …, priority 2016, published 2022)
